The procedure of data set [1]: The level of methioninemia in a healthy subject should be measured on an empty stomach and should be less than 45 μM. Typically, in the subject affected by MARS mutations, the level of methioninemia to reach efficacy should be in the range of 45-500 μM (>45 μM at residual dosage and <500 μM at peak dosage 1 hour after the dose has been taken). The level of methioninemia is measured with the following methods. […] For accurate quantification, stable isotope internal standards of the same structure for each metabolite (Eurisotop, Saint Aubin, France) are added to samples before protein precipitation. Internal standards are labeled on all carbons and nitrogen(s) with following exceptions: glutamine 2,3,3,4,4-D5, asparagine ^13C4, tryptophan Indole-D5, citrulline ^13CD4 and homocysteine 3,3,3′,3′,4,4,4′,4′-D8. Samples are first derivatized using the AccQ Tag™ Ultra (Waters Corporation, Milford, MA, USA) according to manufacturer recommendations. Amino acid separation is performed with an Acquity™ UPLC system using a CORTECS™ UPLC C18 column (1.6 μm, 2.1×150 mm) coupled to microTQS™ tandem mass spectrometer (Waters Corporation, Milford, MA, USA). The run time for quantification of all amino acids is 12 min.
(§1) The MetPAP study was registered at clinicaltrials.gov (NCT03887169). […] The secondary objectives were to determine the efficacy of such treatment.
The frequency of medication was based on the known half-life of the moleculel and the peak was determined by performing kinetic measurements on the patients during the first day of supplementation.

In the next data set the test system is peripheral monocytes. To be noted: control = 100%. Here is the method:
Peripheral monocyte and phagocyte functions were assessed by quantifying ROS production. Whole blood collected from lithium heparinized tubes (500 μl) was incubated for 15 min at 37° C. with dihydrorhodamine 123[…] (Sigma-Aldrich). Samples were then treated for 1 h at 37° C. with GM-CSF (10 ng/ml; R&D Systems), followed by stimulation for 5 min with fMLF (10^-5M; Sigma-Aldrich). The reaction was stopped by adding 1 ml ice-cold lysis solution (BD Biosciences) and incubating for 5 min on ice. Samples were then washed with PBS (Sigma-Aldrich) and the pellets resuspended in 300 μl FacsFlow solution (BD Biosciences). Samples were analyzed by flow cytometry on a FACSCanto II (BD Biosciences). Phagocytes (neutrophils and monocytes) were selected on the FSC-SSC dot plot. Events (50,000) were recorded at a constant PMT voltage. Results are expressed as the index of stimulation (MIF DHE GM-CSF+fMLP/DHE GM-CSF alone).

In data set [2] the test system is subjects receiving a loading dose of methionine. To be noted: cited from earlier work.
Data set [3] has as its system patients with MAT I/III deficiency. The following applies: large series of patients with MAT I/III deficiency; cited from earlier work.
Data set [4] relates to patients presenting pulmonary alveolar proteinosis due to the double mutation Ala393Thr/Ser567Leu in MARS.
Excerpt: as §1

Read-outs that look alike come from different tables or passages of the source.

`CSCC[C@H](N)C(=O)O` [methionine, L-methionine]: in data set [1] (P3, D21 of treatment), the “methioninemia at T0 (residual)” value stood at 42 µM. For the same molecule, in data set [1] (kinetic study in the patients), the “time of peak plasma methionine after taking the medication” value is recorded as 1 h. In data set [1] (treatment every 6 h), the “residual and peak plasma methionine values over 24-h periods, days and months” value was “reproducible residual and peak values”. Moreover, the “stimulation index relative to control (GM-CSF priming of ROS production by peripheral monocytes)” value in the data set with peripheral monocytes (P1, after three months of treatment (M3)) is recorded as 109%; with peripheral monocytes (P3, after three months of treatment (M3)), 73%. For the same molecule, the “adverse events (arterial blood pressure change, nausea and vomiting, dizziness, polyuria)” value in data set [2] was “mild and always transient”. For the same molecule, in data set [3], the “mean plasma methionine values at which CNS abnormalities were observed” value is more than 800 µM. Moreover, the “elevated transaminases (multiple of normal value)” value in data set [4] (P3, D21, judged not attributable to a toxic effect of methionine) is more than 3 N. Further, the “Tolerance of methionine supplementation” value in data set [4] (during the protocol and after) is on record as “well tolerated”.

These data come from patent US20240238235A1, “METHODS AND COMPOSITIONS FOR TREATING PULMONARY ALVEOLAR PROTEINOSIS RELATED TO MARS MUTATIONS” (INSTITUT NATIONAL DE LA SANTÉ ET DE LA RECHERCHE MÉDICALE, priority 2021, published 2024).
